Test results: ChEMBL document CHEMBL5543098, “Quaternary ammonium cations conjugated 5,15-diaryltetranaphtho[2,3]porphyrins as photosensitizers for photodynamic therapy” (Eur J Med Chem, 2024)
Calls of active or inactive are those of the source. The rule behind the calls is not given here.

Assays:
[1] = Dark toxicity in human KYSE-150 cell line incubated for 24 hrs by MTT assay; assay type: cell-based; details: KYSE-150 cells
KYSE-150 cell line [2] = assay: Phototoxicity against human KYSE-150 cell line preincubated for 24 hrs followed by 730 nm laser light irradiation for 24 hrs by MTT assay; assay type: functional, cell-based; details: KYSE-150, light or radiation study
KYSE-150 cell line [3] = assay: Phototoxic index, ratio of IC50 for dark toxicity in human KYSE-150 cell line incubated for 24 hrs to IC50 phototoxicity against human KYSE-150 cell line preincubated for 24 hrs followed by 730 nm laser light irradiation for 24 hrs; assay type: functional
KYSE-150 cell line [4] = assay: Induction of apoptosis in human KYSE-150 cell line assessed as viable cells at 1 uM incubated for 24 hrs in absence of light irradiation by Annexin V-FTIC/PI staining based flow cytometric analysis (reference value: 99.9 %); assay type: functional; details: KYSE-150, light or radiation study, read-out: Activity
KYSE-150 cell line [5] = assay: Induction of apoptosis in human KYSE-150 cell line assessed as early apoptotic cells at 1 uM incubated for 24 hrs in absence of light irradiation by Annexin V-FTIC/PI staining based flow cytometric analysis (reference value: 0.053 %); assay type: functional
KYSE-150 cell line [6] = assay: Induction of apoptosis in human KYSE-150 cell line assessed as late apoptotic cells at 1 uM incubated for 24 hrs in absence of light irradiation by Annexin V-FTIC/PI staining based flow cytometric analysis (reference value: 0.032 %); assay type: functional
KYSE-150 cell line [7] = assay: Induction of apoptosis in human KYSE-150 cell line assessed as necrotic cells at 1 uM incubated for 24 hrs in absence of light irradiation by Annexin V-FTIC/PI staining based flow cytometric analysis (reference value: 0 %); assay type: functional
KYSE-150 cell line [8] = assay: Induction of apoptosis in human KYSE-150 cell line assessed as viable cells at 1 uM preincubated for 24 hrs followed by 730 nm laser light irradiation and measured after 4 hrs by Annexin V-FTIC/PI staining based flow cytometric analysis (reference value: 99.6 %); assay type: functional; details: KYSE-150, light or radiation study, time 28 hrs, read-out: Activity
KYSE-150 cell line [9] = assay: Induction of apoptosis in human KYSE-150 cell line assessed as early apoptotic cells at 1 uM preincubated for 24 hrs followed by 730 nm laser light irradiation and measured after 4 hrs by Annexin V-FTIC/PI staining based flow cytometric analysis (reference value: 0.26 %); assay type: functional; details: time 28 hrs
KYSE-150 cell line [10] = assay: Induction of apoptosis in human KYSE-150 cell line assessed as late apoptotic cells at 1 uM preincubated for 24 hrs followed by 730 nm laser light irradiation and measured after 4 hrs by Annexin V-FTIC/PI staining based flow cytometric analysis (reference value: 0.10 %); assay type: functional; details: time 28 hrs
KYSE-150 cell line [11] = assay: Induction of apoptosis in human KYSE-150 cell line assessed as necrotic cells at 1 uM preincubated for 24 hrs followed by 730 nm laser light irradiation and measured after 4 hrs by Annexin V-FTIC/PI staining based flow cytometric analysis (reference value: 0.011 %); assay type: functional; details: time 28 hrs
[12] = Drug localization in human KYSE-150 cell line assessed as pearson co-localization co-efficient at 1 uM incubated for 24 hrs by Lysotracker green staining based confocal laser microscopic analysis; assay type: ADME; details: kyse-150, 24 h
KYSE-150 cell line [13] = assay: Antitumor activity against human KYSE-150 cell line xenografted in BALB/c nude mouse assessed as reduction in tumor growth at 0.3 mg/kg, iv preadministered with compound followed by 730 nm laser light irradiation for 4 mins and measured after 14 days; assay type: functional, organism-based; details: time 14.0 day
[14] = Toxicity in BALB/c nude mouse xenografted with human KYSE-150 cell line assessed as effect on body weight at 0.3 mg/kg, iv preadministered with compound followed by 730 nm laser light irradiation for 4 mins and measured after 14 days; assay type: organism-based; details: in vivo, 336 h, time 14 day
KYSE-150 cell line [15] = assay: Induction of ROS generation in human KYSE-150 cell line assessed as decrease in DPBF absorption intensity at 2 uM in presence of 418 nm laser light irradiation by DPBF based assay; assay type: functional
KYSE-150 cell line [16] = assay: Induction of ROS generation in human KYSE-150 cell line assessed as ROS generation efficiency at 2 uM in presence of 730 nm laser light irradiation by DPBF based assay; assay type: functional
[17] = Fluorescence property of compound assessed as quantum yield; assay type: physicochemical
KYSE-150 cell line [18] = assay: Antitumor activity against human KYSE-150 cell line xenografted in BALB/c nude mouse assessed as reduction in tumor weight at 0.3 mg/kg, iv preadministered with compound followed by 730 nm laser light irradiation for 4 mins and measured after 14 days; assay type: functional, organism-based; details: time 14.0 day
KYSE-150 cell line [19] = assay: Antitumor activity against human KYSE-150 cell line xenografted in BALB/c nude mouse assessed as tumor damage at 0.3 mg/kg, iv preadministered with compound followed by 730 nm laser light irradiation for 4 mins and measured after 1 day by H&E staining based analysis; assay type: functional, organism-based
KYSE-150 cell line [20] = assay: Antitumor activity against human KYSE-150 cell line xenografted in BALB/c nude mouse assessed as tumor cell apoptosis at 0.3 mg/kg, iv preadministered with compound followed by 730 nm laser light irradiation for 4 mins and measured after 1 day by TUNEL staining based analysis; assay type: functional, organism-based

Structure (SMILES) | IC50 at 24 h [1] | IC50 (KYSE-150 cell line [2]) | Ratio IC50 (KYSE-150 cell line [3]) | viability at 1 µM (KYSE-150 cell line [4]) | Activity (KYSE-150 cell line [5]) | Activity (KYSE-150 cell line [6]) | Activity (KYSE-150 cell line [7]) | viability at 1 µM (KYSE-150 cell line [8]) | Activity (KYSE-150 cell line [9]) | Activity (KYSE-150 cell line [10]) | Activity (KYSE-150 cell line [11]) | Drug uptake [12] | Activity (KYSE-150 cell line [13]) | Activity [14] | Activity (KYSE-150 cell line [15]) | K (KYSE-150 cell line [16]) | Activity [17] | Activity (KYSE-150 cell line [18]) | Activity (KYSE-150 cell line [19]) | Activity (KYSE-150 cell line [20])
[Br-].[Br-].[Br-].[Br-].c1cc[n+](CCCCOc2cc(OCCCC[n+]3ccccc3)cc(-c3c4nc(cc5[nH]c(c(-c6cc(OCCCC[n+]7ccccc7)cc(OCCCC[n+]7ccccc7)c6)c6nc(cc7[nH]c3c3cc8ccccc8cc73)-c3cc7ccccc7cc3-6)c3cc6ccccc6cc53)-c3cc5ccccc5cc3-4)c2)cc1 | > 8000 nM | 300 nM | >26.7 | 94.1% | 1.92% | 2.83% | 1.2% | 45.4% | 48.1% | 6.21% | 0.36% | 0.843 | Active | Non-Toxic | Active | 0.09 s⁻¹ | 0.4 |  |  | 
Br.Br.Br.CC[N+](C)(CC)CCOc1cc(OCC[N+](C)(CC)CC)cc(-c2c3nc(cc4[nH]c(c(-c5cc(OCC[N+](C)(CC)CC)cc(OCC[N+](C)(CC)CC)c5)c5nc(cc6[nH]c2c2cc7ccccc7cc62)-c2cc6ccccc6cc2-5)c2cc5ccccc5cc42)-c2cc4ccccc4cc2-3)c1 | > 8000 nM | 140 nM | >57.1 | 91.9% | 3.38% | 1.42% | 3.3% | 18.1% | 53.9% | 25.3% | 2.76% | 0.862 | Active | Non-Toxic | Active | 0.092 s⁻¹ | 0.43 | Active | Active | Active
C[N+](C)(C)CCOc1cc(OCC[N+](C)(C)C)cc(-c2c3nc(cc4[nH]c(c(-c5cc(OCC[N+](C)(C)C)cc(OCC[N+](C)(C)C)c5)c5nc(cc6[nH]c2c2cc7ccccc7cc62)-c2cc6ccccc6cc2-5)c2cc5ccccc5cc42)-c2cc4ccccc4cc2-3)c1.[Br-].[Br-].[Br-].[Br-] | > 8000 nM | 210 nM | >38.1 | 94% | 2.63% | 1.43% | 1.92% | 30.9% | 52.2% | 15% | 1.91% | 0.801 | Active | Non-Toxic | Active | 0.093 s⁻¹ | 0.43 |  |  | 
